Data taken from patent US11446287B2, “Compounds and methods for EP300 or CBP modulation and indications therefor” (Opna Immuno-Oncology SA, priority 2019, dated 2022).

Each compound was assayed against T1, Recombinant human EP300 containing the bromodomain (EP300-BD (1040-1161)) (Homo sapiens, UniProt Q09472) (assay: EP300 Alphascreen binding assay).
T1 construct: Recombinant human EP300 bromodomain (EP300-BD (1040-1161)); made in house; host or cells: E. coli BL21-CodonPlus (DE3), modified pET vector
T1 sequence (Q09472 1040-1161): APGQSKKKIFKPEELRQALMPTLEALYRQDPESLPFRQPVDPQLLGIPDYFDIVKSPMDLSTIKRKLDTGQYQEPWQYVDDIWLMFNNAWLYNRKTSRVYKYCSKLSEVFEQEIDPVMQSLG
Method in brief: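 Displacement of a biotinylated acetyl-K56 histone H3 peptide from the N-His bromodomain construct (1040-1161) measured by AlphaScreen proximity, beads at 7.5 μg/ml final, read 60 min after addition. Protein, peptide and compound first incubated 1 h at room temperature, pH 7.5 HEPES buffer; IC50 by four-parameter logistic fit.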

SMILES	IC50 [nM]
CCOc1cc(C(=O)O)nc(OCC)c1-n1cc(-c2ccc(F)cc2F)c2ncc(-c3c(C)noc3C)cc21 [P-0431, 5-(3-(2,4-difluorophenyl)-6-(3,5-dimethylisoxazol-4-yl)-1H-pyrrolo[3,2-b]pyridin-1-yl)-4,6-diethoxypicolinic acid]	0.1 to 1000
CCOc1cc(C(=O)OC)nc(OCC)c1-c1cn(-c2ccc(F)cc2F)c2ncc(-c3c(C)noc3C)cc12 [P-0432, methyl 5-(1-(2,4-difluorophenyl)-5-(3,5-dimethylisoxazol-4-yl)-1H-pyrrolo[2,3-b]pyridin-3-yl)-4,6-diethoxypicolinate]	0.1 to 1000
CCOc1cc(C(=O)O)nc(OCC)c1-c1cn(C2CCN(C(=O)OC(C)(C)C)CC2)c2ncc(-c3c(C)noc3C)cc12 [P-0433, 5-(1-(1-(tert-butoxycarbonyl)piperidin-4-yl)-5-(3,5-dimethylisoxazol-4-yl)-1H-pyrrolo[2,3-b]pyridin-3-yl)-4,6-diethoxypicolinic acid]	0.1 to 1000
Cc1noc(C)c1-c1cnc2c(c1)c(C1CCC(C(=O)O)CC1)cn2-c1ccc(F)cc1F (stereo not shown) [P-0434, 4-(1-(2,4-difluorophenyl)-5-(3,5-dimethylisoxazol-4-yl)-1H-pyrrolo[2,3-b]pyridin-3-yl)cyclohexane-1-carboxylic acid]	0.1 to 1000
CCOc1cc(C(=O)O)nc(OCC)c1-c1cn(C2CCN(S(C)(=O)=O)CC2)c2ncc(-c3c(C)noc3C)cc12 [P-0435, 5-(5-(3,5-dimethylisoxazol-4-yl)-1-(1-(methylsulfonyl)piperidin-4-yl)-1H-pyrrolo[2,3-b]pyridin-3-yl)-4,6-diethoxypicolinic acid]	0.1 to 1000
CCOc1cc(C(=O)O)nc(OCC)c1-c1cn(-c2cccnc2)c2ncc(-c3c(C)noc3C)cc12 [P-0436, 5-(5-(3,5-dimethylisoxazol-4-yl)-1-(pyridin-3-yl)-1H-pyrrolo[2,3-b]pyridin-3-yl)-4,6-diethoxypicolinic acid]	0.1 to 1000
Cc1noc(C)c1-c1cnc2c(c1)c(-c1ccc(CC(=O)O)cc1F)cn2-c1ccc(F)cc1F [P-0437]	0.1 to 1000
Cc1noc(C)c1-c1cnc2c(c1)c(-c1ccc(CC(=O)O)cc1)cn2-c1ccc(F)cc1F [P-0438, 2-(4-(1-(2,4-difluorophenyl)-5-(3,5-dimethylisoxazol-4-yl)-1H-pyrrolo[2,3-b]pyridin-3-yl)phenyl)acetic acid]	0.1 to 1000
Cc1noc(C)c1-c1cnc2c(c1)c(-c1c(Cl)cc(C(=O)O)cc1OC(F)(F)F)cn2-c1cccnn1 [P-0439, 3-chloro-4-(5-(3,5-dimethylisoxazol-4-yl)-1-(pyridazin-3-yl)-1H-pyrrolo[2,3-b]pyridin-3-yl)-5-(trifluoromethoxy)benzoic acid]	0.1 to 1000
COC(=O)c1cc(Cl)c(-c2cn(-c3ccc(C4CC4)nc3)c3ncc(-c4c(C)noc4C)cc23)c(OC(F)(F)F)c1 [P-0440, methyl 3-chloro-4-(1-(6-cyclopropylpyridin-3-yl)-5-(3,5-dimethylisoxazol-4-yl)-1H-pyrrolo[2,3-b]pyridin-3-yl)-5-(trifluoromethoxy)benzoate]	1000 to 8000
Cc1noc(C)c1-c1cnc2c(c1)c(-c1c(Cl)cc(C(=O)O)cc1OC(F)(F)F)cn2-c1ccc(C2CC2)nc1 [P-0441, 3-chloro-4-(1-(6-cyclopropylpyridin-3-yl)-5-(3,5-dimethylisoxazol-4-yl)-1H-pyrrolo[2,3-b]pyridin-3-yl)-5-(trifluoromethoxy)benzoic acid]	0.1 to 1000
CCOc1cc(C(=O)O)c(F)cc1-c1cn(C2CCN(C(=O)OC(C)(C)C)CC2)c2ncc(-c3c(C)noc3C)cc12 [P-0442, 4-(1-(1-(tert-butoxycarbonyl)piperidin-4-yl)-5-(3,5-dimethylisoxazol-4-yl)-1H-pyrrolo[2,3-b]pyridin-3-yl)-5-ethoxy-2-fluorobenzoic acid]	0.1 to 1000
COc1ccc(CC(=O)O)cc1-c1cn(-c2ccc(F)cc2F)c2ncc(-c3c(C)noc3C)cc12 [P-0443, 2-(3-(1-(2,4-difluorophenyl)-5-(3,5-dimethylisoxazol-4-yl)-1H-pyrrolo[2,3-b]pyridin-3-yl)-4-methoxyphenyl)acetic acid]	0.1 to 1000
Cc1noc(C)c1-c1cnc2c(c1)c(-c1cc(F)c(C(=O)O)cc1OC(F)(F)F)cn2-c1ccc(C2CC2)nc1 [P-0444, 4-(1-(6-cyclopropylpyridin-3-yl)-5-(3,5-dimethylisoxazol-4-yl)-1H-pyrrolo[2,3-b]pyridin-3-yl)-2-fluoro-5-(trifluoromethoxy)benzoic acid]	0.1 to 1000
CCOc1cc(C(=O)O)c(F)cc1-c1cn(C2CCN(C(=O)C(C)(C)C)CC2)c2ncc(-c3c(C)noc3C)cc12 [P-0445, 4-(5-(3,5-dimethylisoxazol-4-yl)-1-(1-pivaloylpiperidin-4-yl)-1H-pyrrolo[2,3-b]pyridin-3-yl)-5-ethoxy-2-fluorobenzoic acid]	0.1 to 1000
CCOc1cc(C(=O)O)c(F)cc1-c1cn(C2CCN(CCC#N)CC2)c2ncc(-c3c(C)noc3C)cc12 [P-0446, 4-(1-(1-(2-cyanoethyl)piperidin-4-yl)-5-(3,5-dimethylisoxazol-4-yl)-1H-pyrrolo[2,3-b]pyridin-3-yl)-5-ethoxy-2-fluorobenzoic acid]	0.1 to 1000
CCOc1cc(C(=O)O)c(F)cc1-c1cn(C2CCN(C(=O)CO)CC2)c2ncc(-c3c(C)noc3C)cc12 [P-0447, 4-(5-(3,5-dimethylisoxazol-4-yl)-1-(1-(2-hydroxyacetyl)piperidin-4-yl)-1H-pyrrolo[2,3-b]pyridin-3-yl)-5-ethoxy-2-fluorobenzoic acid]	0.1 to 1000
CCc1onc(C)c1-c1cnc2c(c1)c(-c1c(Cl)cc(C(=O)O)cc1OC(F)(F)F)cn2-c1ccc(C2CC2)nc1 [P-0448, 3-chloro-4-(1-(6-cyclopropylpyridin-3-yl)-5-(5-ethyl-3-methylisoxazol-4-yl)-1H-pyrrolo[2,3-b]pyridin-3-yl)-5-(trifluoromethoxy)benzoic acid]	0.1 to 1000
Cc1nnn(C)c1-c1cnc2c(c1)c(-c1cccc(C(=O)O)c1)cn2[C@@H](C)c1ccccn1 [P-0449, (S)-3-(5-(1,4-dimethyl-1H-1,2,3-triazol-5-yl)-1-(1-(pyridin-2-yl)ethyl)-1H-pyrrolo[2,3-b]pyridin-3-yl)benzoic acid]	0.1 to 1000
